Results as given in US20250263441A1 (Metanovas Biotech Inc., priority 2024, published 2025).
“And” between values parts separate entries of the source, which are not always exact repeats. Equal entries are not always repeated.

What was measured:
Propionibacterium acnes = assay: Minimum inhibitory concentration on Propionibacterium acnes (liquid culture); format: cell-based; conditions: anaerobic, 37° C., 24 to 48 hours
Procedure: Primary screening of liquid culture: the peptides in Examples 1 to 2 were dissolved in pure water to a concentration of 100 μg/mL. Using a micropipette, 10 μL of the peptides were added to a new 96-well plate in order from left to right, starting from the second compartment. Positive and negative controls were established for use. The 96-well plates were arranged vertically, and the peptide concentrations in the control groups were the same as those of the antimicrobial peptides. The control groups included: pure water and bacteria, antimicrobial peptide FK13 and bacteria, antimicrobial peptide HPA3NT3 and bacteria, and ciprofloxacin and bacteria. An aseptic medium was used.
If a 96-deep-well plate was used to culture bacteria, an additional 100 μL of sterile medium was added to all wells.
Propionibacterium acnes was inoculated on an anaerobic blood agar plate, placed in an anaerobic bag, and incubated anaerobically at 37° C. for 48 hours. Propionibacterium acnes clones were then picked and incubated anaerobically in liquid anaerobic broth medium at 37° C. for an additional 48 hours. The bacterial concentration was measured and diluted to 107 CFU/mL with culture medium.
The prepared fresh bacterial suspension was diluted to 105 CFU/mL and added to the 96-well plate with 90 μL of the bacterial suspension per well. The plate was incubated at 37° C. with a normal oxygen concentration for 24 to 48 hours (Propionibacterium acnes was cultured anaerobically at 37° C. for 24 to 48 hours in an anaerobic bag). The absorbance at 630 nm was measured using a microplate reader, and the degree of turbidity was observed by the naked eye.
(iv) Repetition of Operations: The Operations in (iii) were Repeated Twice, and the Decision to Perform a Third Repetition was Based on the Reproducibility of the Experiment.

[1] = test system: Escherichia coli (ATCC: 25922); assay: Inhibitory effect of AMP-33 on Escherichia coli (viability, OD 630 nm); format: cell-based; conditions: for Viability of Escherichia coli: 24 hours, repeated experiments
Procedure: (1) Staphylococcus aureus and Escherichia coli were inoculated into LB liquid medium and cultured overnight under aerobic conditions at 37° C. and […] on a shaker.
(2) 200 μL of LB liquid culture medium and a predetermined concentration of peptide AMP-33 were added to a 96-deep-well plate. Then, 10 μL of the Staphylococcus aureus/Escherichia coli solution was inoculated (mixed well before inoculation).
(3) After incubating at […] for 24 hours on a shaking table at 37° C., the turbidity of the bacterial solution was observed. A volume of 100 μL of the solution was taken, and the OD at 630 nm was measured using an enzyme-linked immunosorbent assay (ELISA) reader (after multiple blows and mixing).
[formula] • OD Measurement: OD value of the test peptide. • ODneg: OD value with no bacterial inoculation, containing only […] medium. • ODpos: OD value with bacterial inoculation and without inhibitors.

“Example 2: LSKWLKKLGKLLAG (designated as AMP33)” was tested, and the “Minimum inhibitory concentration on Propionibacterium acnes” value (Propionibacterium acnes) was 4 µg/mL, the “Viability of Escherichia coli” value ([1]; 1 μg/mL) was 110.11 and 91.93 and 82.94 and the “Viability of Escherichia coli” value ([1]; 2 μg/mL) was 89.71 and 90.4 and 98.53. For the same substance, the “Viability of Escherichia coli” value ([1]; 4 μg/mL) was 86.48 and 70.83 and 70.35, the “Viability of Escherichia coli” value ([1]; 8 μg/mL) was 78.87 and 50.46 and 73.2 and the “Viability of Escherichia coli” value ([1]; 25 μg/mL) was 74.99 and 38.97 and 51.39. For the same substance, the “inhibition of Escherichia coli” value ([1]; 25 ppm) was “over 99%”.
